From ChEMBL document CHEMBL3822358 (J Med Chem, 2016)

System: not listed separately
Assay: Tmax in CD rat at 10 mg/kg, po by LC-MS/MS analysis
Assay type: ADME, organism-based
Conditions: in vivo

Question: Which Tmax does the source give for `COc1cc(OC2CCN(C)CC2)ccc1Nc1ncc(Cl)c(Nc2ccccc2P(C)(C)=O)n1` here?
Answer: 4 h

Question: For `COc1cc(N2CCN(CCO)CC2)ccc1Nc1ncc(Cl)c(Nc2ccccc2P(C)(C)=O)n1`, which Tmax is on record?
Answer: 4 h

Question: For `COc1cc(N2CCC(CN3CCC3)CC2)ccc1Nc1ncc(Cl)c(Nc2ccccc2P(C)(C)=O)n1`, which Tmax is on record?
Answer: 6 h

System: not listed separately
Assay: cells
Conditions: Homo sapiens, KARPAS-299, 72 h
Description: Antiproliferative activity against human ALK-positive KARPAS299 cells assessed as reduction in cell viability measured after 72 hrs by CellTiter 96 aqueous one solution cell proliferation assay

Question: Which IC50 does the source give for `COc1cc(OC2CCN(C)CC2)ccc1Nc1ncc(Cl)c(Nc2ccccc2P(C)(C)=O)n1` here?
Answer: 55.5 nM

Question: With `COc1cc(N2CCN(CCO)CC2)ccc1Nc1ncc(Cl)c(Nc2ccccc2P(C)(C)=O)n1` as the compound, how does the IC50 read?
Answer: 37.6 nM

Question: For `COc1cc(N2CCC(CN3CCC3)CC2)ccc1Nc1ncc(Cl)c(Nc2ccccc2P(C)(C)=O)n1`, which IC50 is on record?
Answer: 29.9 nM

Biological target: Insulin-like growth factor 1 receptor (Homo sapiens, UniProt P08069)
Assay: not given
Conditions: not given

Chain of Insulin-like growth factor 1 receptor (P08069 31-736 limits assumed): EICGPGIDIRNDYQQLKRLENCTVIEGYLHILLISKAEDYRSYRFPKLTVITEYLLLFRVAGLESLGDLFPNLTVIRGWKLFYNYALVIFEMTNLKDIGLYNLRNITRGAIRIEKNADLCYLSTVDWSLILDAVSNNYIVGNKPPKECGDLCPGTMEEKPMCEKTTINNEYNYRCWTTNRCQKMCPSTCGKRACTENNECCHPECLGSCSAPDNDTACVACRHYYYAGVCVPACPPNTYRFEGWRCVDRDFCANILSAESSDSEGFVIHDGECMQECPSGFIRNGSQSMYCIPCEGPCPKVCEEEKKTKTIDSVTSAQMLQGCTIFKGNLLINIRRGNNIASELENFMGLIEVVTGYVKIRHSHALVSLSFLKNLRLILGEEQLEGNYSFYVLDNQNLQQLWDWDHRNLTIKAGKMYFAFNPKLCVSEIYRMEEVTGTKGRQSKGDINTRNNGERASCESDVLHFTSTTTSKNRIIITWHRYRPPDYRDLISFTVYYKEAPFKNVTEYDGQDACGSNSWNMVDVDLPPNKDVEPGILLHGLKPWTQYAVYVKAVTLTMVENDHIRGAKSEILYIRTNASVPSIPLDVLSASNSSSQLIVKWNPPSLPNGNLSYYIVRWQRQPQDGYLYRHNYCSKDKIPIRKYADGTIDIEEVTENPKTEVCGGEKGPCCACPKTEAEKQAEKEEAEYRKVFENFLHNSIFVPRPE
Chain of Insulin-like growth factor 1 receptor (P08069 741-1367 limits assumed): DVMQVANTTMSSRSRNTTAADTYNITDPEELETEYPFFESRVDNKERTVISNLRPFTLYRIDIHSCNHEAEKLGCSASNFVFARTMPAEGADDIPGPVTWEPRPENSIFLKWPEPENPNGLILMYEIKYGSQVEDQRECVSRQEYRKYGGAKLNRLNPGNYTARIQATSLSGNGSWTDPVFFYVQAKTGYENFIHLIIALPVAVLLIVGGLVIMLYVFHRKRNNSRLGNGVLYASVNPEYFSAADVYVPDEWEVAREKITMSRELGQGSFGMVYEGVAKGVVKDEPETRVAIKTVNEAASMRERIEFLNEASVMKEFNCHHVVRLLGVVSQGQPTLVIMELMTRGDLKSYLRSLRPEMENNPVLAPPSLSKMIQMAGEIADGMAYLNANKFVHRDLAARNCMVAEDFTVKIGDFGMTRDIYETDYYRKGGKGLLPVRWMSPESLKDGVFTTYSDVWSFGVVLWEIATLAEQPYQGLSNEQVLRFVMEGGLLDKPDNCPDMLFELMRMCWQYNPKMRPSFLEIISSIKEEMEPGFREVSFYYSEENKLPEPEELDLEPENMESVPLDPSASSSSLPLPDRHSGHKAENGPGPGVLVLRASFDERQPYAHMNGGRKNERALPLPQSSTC

Question: For `COc1cc(OC2CCN(C)CC2)ccc1Nc1ncc(Cl)c(Nc2ccccc2P(C)(C)=O)n1`, which IC50 is on record?
Answer: 86.5 nM

Question: With `COc1cc(N2CCN(CCO)CC2)ccc1Nc1ncc(Cl)c(Nc2ccccc2P(C)(C)=O)n1` as the compound, how does the IC50 read?
Answer: 12.8 nM

Question: Which IC50 does the source give for `COc1cc(N2CCC(CN3CCC3)CC2)ccc1Nc1ncc(Cl)c(Nc2ccccc2P(C)(C)=O)n1` here?
Answer: 31.6 nM

Biological target: T1, ALK tyrosine kinase receptor (Homo sapiens, UniProt Q9UM73)
Assay: Inhibition of ALK phosphorylation in mouse xenografted with human KARPAS299 cells assessed as p-ALK level at 25 mg/kg, po administered as single dose measured after 16 hrs relative to 2 hrs vehicle-treated tumor
Assay type: organism-based
Set-up: scale not given: the % may be the effect or the level left
Conditions: KARPAS-299

Question: For `COc1cc(OC2CCN(C)CC2)ccc1Nc1ncc(Cl)c(Nc2ccccc2P(C)(C)=O)n1`, which Activity is on record?
Answer: 125%

Question: Which Activity does the source give for `COc1cc(N2CCC(CN3CCC3)CC2)ccc1Nc1ncc(Cl)c(Nc2ccccc2P(C)(C)=O)n1` here?
Answer: 60%

Biological target: T1, ALK tyrosine kinase receptor
Assay: Inhibition of ALK phosphorylation in mouse xenografted with human KARPAS299 cells assessed as p-ALK level at 25 mg/kg, po administered as single dose measured after 24 hrs relative to 2 hrs vehicle-treated tumor
Assay type: organism-based
Set-up: scale not given: the % may be the effect or the level left
Conditions: KARPAS-299

Question: For `COc1cc(OC2CCN(C)CC2)ccc1Nc1ncc(Cl)c(Nc2ccccc2P(C)(C)=O)n1`, which Activity is on record?
Answer: 160%

Question: For `COc1cc(N2CCC(CN3CCC3)CC2)ccc1Nc1ncc(Cl)c(Nc2ccccc2P(C)(C)=O)n1`, which Activity is on record?
Answer: 104%

System: not listed separately
Assay: Cmax in CD rat at 10 mg/kg, po by LC-MS/MS analysis
Assay type: ADME, organism-based
Set-up: dose 10 mg/kg, route oral
Conditions: in vivo

Question: For `COc1cc(OC2CCN(C)CC2)ccc1Nc1ncc(Cl)c(Nc2ccccc2P(C)(C)=O)n1`, which Cmax is on record?
Answer: 659 ng/mL

Question: For `COc1cc(N2CCN(CCO)CC2)ccc1Nc1ncc(Cl)c(Nc2ccccc2P(C)(C)=O)n1`, which Cmax is on record?
Answer: 75.7 ng/mL

Question: With `COc1cc(N2CCC(CN3CCC3)CC2)ccc1Nc1ncc(Cl)c(Nc2ccccc2P(C)(C)=O)n1` as the compound, how does the Cmax read?
Answer: 353 ng/mL

System: not listed separately
Assay: AUC (0 to 24 hrs) in mouse at 10 mg/kg, po by LC-MS/MS analysis
Assay type: ADME, organism-based
Set-up: time < 24 hr, dose 10 mg/kg, route oral
Conditions: in vivo

Question: With `COc1cc(OC2CCN(C)CC2)ccc1Nc1ncc(Cl)c(Nc2ccccc2P(C)(C)=O)n1` as the compound, how does the AUC(0-t) at 24 h read?
Answer: 951 ng·h/mL

Question: With `COc1cc(N2CCC(CN3CCC3)CC2)ccc1Nc1ncc(Cl)c(Nc2ccccc2P(C)(C)=O)n1` as the compound, how does the AUC(0-t) at 24 h read?
Answer: 6490 ng·h/mL

System: not listed separately
Assay: Volume of distribution at steady state in CD rat at 3 mg/kg, iv by LC-MS/MS analysis
Assay type: ADME, organism-based
Conditions: CD, in vivo, read-out: Vdss

Question: With `COc1cc(OC2CCN(C)CC2)ccc1Nc1ncc(Cl)c(Nc2ccccc2P(C)(C)=O)n1` as the compound, how does the Vd read?
Answer: 2.89 L/kg

Question: Which Vd does the source give for `COc1cc(N2CCN(CCO)CC2)ccc1Nc1ncc(Cl)c(Nc2ccccc2P(C)(C)=O)n1` here?
Answer: 9.51 L/kg

Question: For `COc1cc(N2CCC(CN3CCC3)CC2)ccc1Nc1ncc(Cl)c(Nc2ccccc2P(C)(C)=O)n1`, which Vd is on record?
Answer: 1.46 L/kg

System: not listed separately
Assay: Clearance in CD rat at 3 mg/kg, iv by LC-MS/MS analysis
Assay type: ADME, organism-based
Conditions: in vivo

Question: For `COc1cc(OC2CCN(C)CC2)ccc1Nc1ncc(Cl)c(Nc2ccccc2P(C)(C)=O)n1`, which clearance is on record?
Answer: 9.83 mL/min/kg

Question: With `COc1cc(N2CCN(CCO)CC2)ccc1Nc1ncc(Cl)c(Nc2ccccc2P(C)(C)=O)n1` as the compound, how does the clearance read?
Answer: 35.8 mL/min/kg

Question: For `COc1cc(N2CCC(CN3CCC3)CC2)ccc1Nc1ncc(Cl)c(Nc2ccccc2P(C)(C)=O)n1`, which clearance is on record?
Answer: 5.83 mL/min/kg

System: not listed separately
Assay: Half life in CD rat at 10 mg/kg, po by LC-MS/MS analysis
Assay type: ADME, organism-based
Conditions: in vivo

Question: For `COc1cc(OC2CCN(C)CC2)ccc1Nc1ncc(Cl)c(Nc2ccccc2P(C)(C)=O)n1`, which half-life is on record?
Answer: 3.9 h

Question: For `COc1cc(N2CCN(CCO)CC2)ccc1Nc1ncc(Cl)c(Nc2ccccc2P(C)(C)=O)n1`, which half-life is on record?
Answer: 2.9 h

Question: For `COc1cc(N2CCC(CN3CCC3)CC2)ccc1Nc1ncc(Cl)c(Nc2ccccc2P(C)(C)=O)n1`, which half-life is on record?
Answer: 3.4 h

System: not listed separately
Assay: AUC (0 to infinity) in CD rat at 10 mg/kg, po by LC-MS/MS analysis
Assay type: ADME, organism-based
Set-up: dose 10 mg/kg, route oral, time infinity
Conditions: in vivo

Question: For `COc1cc(OC2CCN(C)CC2)ccc1Nc1ncc(Cl)c(Nc2ccccc2P(C)(C)=O)n1`, which AUC(0-inf) is on record?
Answer: 9220 ng·h/mL

Question: With `COc1cc(N2CCN(CCO)CC2)ccc1Nc1ncc(Cl)c(Nc2ccccc2P(C)(C)=O)n1` as the compound, how does the AUC(0-inf) read?
Answer: 777 ng·h/mL

Question: With `COc1cc(N2CCC(CN3CCC3)CC2)ccc1Nc1ncc(Cl)c(Nc2ccccc2P(C)(C)=O)n1` as the compound, how does the AUC(0-inf) read?
Answer: 4570 ng·h/mL

Biological target: T1, ALK tyrosine kinase receptor
Assay: Inhibition of ALK phosphorylation in mouse xenografted with human KARPAS299 cells assessed as p-ALK level at 25 mg/kg, po administered as single dose measured after 10 hrs relative to 2 hrs vehicle-treated tumor
Assay type: organism-based
Set-up: scale not given: the % may be the effect or the level left
Conditions: KARPAS-299

Question: For `COc1cc(OC2CCN(C)CC2)ccc1Nc1ncc(Cl)c(Nc2ccccc2P(C)(C)=O)n1`, which Activity is on record?
Answer: 23%

Question: For `COc1cc(N2CCC(CN3CCC3)CC2)ccc1Nc1ncc(Cl)c(Nc2ccccc2P(C)(C)=O)n1`, which Activity is on record?
Answer: 13%

System: not listed separately
Assay: cells
Conditions: Homo sapiens, U-937, 72 h
Description: Antiproliferative activity against human ALK-negative U937 cells assessed as reduction in cell viability measured after 72 hrs by CellTiter 96 aqueous one solution cell proliferation assay

Question: With `COc1cc(OC2CCN(C)CC2)ccc1Nc1ncc(Cl)c(Nc2ccccc2P(C)(C)=O)n1` as the compound, how does the IC50 read?
Answer: 4520 nM

Question: With `COc1cc(N2CCN(CCO)CC2)ccc1Nc1ncc(Cl)c(Nc2ccccc2P(C)(C)=O)n1` as the compound, how does the IC50 read?
Answer: 1800 nM

Question: For `COc1cc(N2CCC(CN3CCC3)CC2)ccc1Nc1ncc(Cl)c(Nc2ccccc2P(C)(C)=O)n1`, which IC50 is on record?
Answer: 2720 nM

System: not listed separately
Assay: Half life in CD rat at 3 mg/kg, iv by LC-MS/MS analysis
Assay type: ADME, organism-based
Conditions: CD, in vivo

Question: Which half-life does the source give for `COc1cc(OC2CCN(C)CC2)ccc1Nc1ncc(Cl)c(Nc2ccccc2P(C)(C)=O)n1` here?
Answer: 3.6 h

Question: With `COc1cc(N2CCN(CCO)CC2)ccc1Nc1ncc(Cl)c(Nc2ccccc2P(C)(C)=O)n1` as the compound, how does the half-life read?
Answer: 8.4 h

Question: With `COc1cc(N2CCC(CN3CCC3)CC2)ccc1Nc1ncc(Cl)c(Nc2ccccc2P(C)(C)=O)n1` as the compound, how does the half-life read?
Answer: 3.6 h

System: not listed separately
Assay: Cmax in mouse at 10 mg/kg, po by LC-MS/MS analysis
Assay type: ADME, organism-based
Set-up: dose 10 mg/kg, route oral
Conditions: in vivo

Question: Which Cmax does the source give for `COc1cc(OC2CCN(C)CC2)ccc1Nc1ncc(Cl)c(Nc2ccccc2P(C)(C)=O)n1` here?
Answer: 184 ng/mL

Question: With `COc1cc(N2CCC(CN3CCC3)CC2)ccc1Nc1ncc(Cl)c(Nc2ccccc2P(C)(C)=O)n1` as the compound, how does the Cmax read?
Answer: 498 ng/mL

System: not listed separately
Assay: AUC (0 to infinity) in CD rat at 3 mg/kg, iv by LC-MS/MS analysis
Assay type: ADME, organism-based
Set-up: dose 3 mg/kg, time infinity, route intravenous
Conditions: CD, in vivo

Question: With `COc1cc(OC2CCN(C)CC2)ccc1Nc1ncc(Cl)c(Nc2ccccc2P(C)(C)=O)n1` as the compound, how does the AUC(0-inf) read?
Answer: 5040 ng·h/mL

Question: Which AUC(0-inf) does the source give for `COc1cc(N2CCN(CCO)CC2)ccc1Nc1ncc(Cl)c(Nc2ccccc2P(C)(C)=O)n1` here?
Answer: 1330 ng·h/mL

Question: Which AUC(0-inf) does the source give for `COc1cc(N2CCC(CN3CCC3)CC2)ccc1Nc1ncc(Cl)c(Nc2ccccc2P(C)(C)=O)n1` here?
Answer: 8620 ng·h/mL

Biological target: T1, ALK tyrosine kinase receptor
Assay: not given
Conditions: not given
Target sequence in this assay (Q9UM73 whole entry): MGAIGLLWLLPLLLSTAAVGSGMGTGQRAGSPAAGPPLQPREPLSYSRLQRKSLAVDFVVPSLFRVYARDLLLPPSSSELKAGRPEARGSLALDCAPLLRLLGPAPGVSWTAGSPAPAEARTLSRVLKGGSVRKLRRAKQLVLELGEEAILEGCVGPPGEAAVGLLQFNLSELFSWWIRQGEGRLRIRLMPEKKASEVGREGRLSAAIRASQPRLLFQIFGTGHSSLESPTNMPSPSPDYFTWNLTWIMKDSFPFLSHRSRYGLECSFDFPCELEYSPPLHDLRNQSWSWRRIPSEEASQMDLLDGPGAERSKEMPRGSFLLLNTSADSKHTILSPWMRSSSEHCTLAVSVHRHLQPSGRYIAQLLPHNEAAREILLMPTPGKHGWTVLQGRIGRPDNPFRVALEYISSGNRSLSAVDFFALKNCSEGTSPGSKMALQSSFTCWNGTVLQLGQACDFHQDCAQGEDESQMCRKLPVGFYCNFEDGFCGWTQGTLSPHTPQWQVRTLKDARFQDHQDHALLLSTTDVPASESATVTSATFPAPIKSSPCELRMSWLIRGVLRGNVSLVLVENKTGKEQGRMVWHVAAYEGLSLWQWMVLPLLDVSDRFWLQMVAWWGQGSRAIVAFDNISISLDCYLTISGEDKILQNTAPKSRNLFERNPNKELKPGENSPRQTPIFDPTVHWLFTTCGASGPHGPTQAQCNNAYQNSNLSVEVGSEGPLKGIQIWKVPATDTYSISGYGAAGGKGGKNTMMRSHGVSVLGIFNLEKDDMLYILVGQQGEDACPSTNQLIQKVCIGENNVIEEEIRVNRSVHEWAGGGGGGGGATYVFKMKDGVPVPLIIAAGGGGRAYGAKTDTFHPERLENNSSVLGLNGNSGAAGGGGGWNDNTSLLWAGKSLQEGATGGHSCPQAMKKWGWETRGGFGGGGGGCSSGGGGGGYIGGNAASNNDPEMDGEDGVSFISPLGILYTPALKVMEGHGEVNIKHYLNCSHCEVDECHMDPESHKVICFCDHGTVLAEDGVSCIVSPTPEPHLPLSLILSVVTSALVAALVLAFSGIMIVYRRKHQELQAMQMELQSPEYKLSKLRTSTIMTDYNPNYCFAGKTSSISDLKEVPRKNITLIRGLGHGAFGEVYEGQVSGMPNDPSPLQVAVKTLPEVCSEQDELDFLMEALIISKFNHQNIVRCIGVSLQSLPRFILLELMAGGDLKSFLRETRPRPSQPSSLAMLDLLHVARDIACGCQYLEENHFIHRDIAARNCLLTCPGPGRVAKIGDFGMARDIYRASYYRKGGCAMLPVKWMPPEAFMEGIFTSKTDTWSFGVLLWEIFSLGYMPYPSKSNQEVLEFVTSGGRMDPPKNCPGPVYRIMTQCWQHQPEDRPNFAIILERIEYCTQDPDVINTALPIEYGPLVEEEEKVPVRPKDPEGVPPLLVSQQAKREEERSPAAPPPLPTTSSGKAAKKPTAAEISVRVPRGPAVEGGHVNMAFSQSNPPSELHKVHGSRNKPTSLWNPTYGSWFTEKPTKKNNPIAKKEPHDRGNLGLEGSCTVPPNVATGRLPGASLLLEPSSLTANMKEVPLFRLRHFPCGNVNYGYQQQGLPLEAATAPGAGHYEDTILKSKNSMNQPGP

Question: For `COc1cc(OC2CCN(C)CC2)ccc1Nc1ncc(Cl)c(Nc2ccccc2P(C)(C)=O)n1`, which IC50 is on record?
Answer: 0.54 nM

Question: Which IC50 does the source give for `COc1cc(N2CCN(CCO)CC2)ccc1Nc1ncc(Cl)c(Nc2ccccc2P(C)(C)=O)n1` here?
Answer: 0.18 nM

Question: With `COc1cc(N2CCC(CN3CCC3)CC2)ccc1Nc1ncc(Cl)c(Nc2ccccc2P(C)(C)=O)n1` as the compound, how does the IC50 read?
Answer: 0.88 nM

System: not listed separately
Assay: Oral bioavailability in CD rat at 10 mg/kg by LC-MS/MS analysis
Assay type: ADME, organism-based
Conditions: in vivo

Question: For `COc1cc(OC2CCN(C)CC2)ccc1Nc1ncc(Cl)c(Nc2ccccc2P(C)(C)=O)n1`, which bioavailability is on record?
Answer: 55%

Question: With `COc1cc(N2CCN(CCO)CC2)ccc1Nc1ncc(Cl)c(Nc2ccccc2P(C)(C)=O)n1` as the compound, how does the bioavailability read?
Answer: 18%

Question: With `COc1cc(N2CCC(CN3CCC3)CC2)ccc1Nc1ncc(Cl)c(Nc2ccccc2P(C)(C)=O)n1` as the compound, how does the bioavailability read?
Answer: 16%

Biological target: Insulin receptor (Homo sapiens, UniProt P06213)
Assay: not given
Conditions: not given

Chain of Insulin receptor (P06213 28-758 limits assumed): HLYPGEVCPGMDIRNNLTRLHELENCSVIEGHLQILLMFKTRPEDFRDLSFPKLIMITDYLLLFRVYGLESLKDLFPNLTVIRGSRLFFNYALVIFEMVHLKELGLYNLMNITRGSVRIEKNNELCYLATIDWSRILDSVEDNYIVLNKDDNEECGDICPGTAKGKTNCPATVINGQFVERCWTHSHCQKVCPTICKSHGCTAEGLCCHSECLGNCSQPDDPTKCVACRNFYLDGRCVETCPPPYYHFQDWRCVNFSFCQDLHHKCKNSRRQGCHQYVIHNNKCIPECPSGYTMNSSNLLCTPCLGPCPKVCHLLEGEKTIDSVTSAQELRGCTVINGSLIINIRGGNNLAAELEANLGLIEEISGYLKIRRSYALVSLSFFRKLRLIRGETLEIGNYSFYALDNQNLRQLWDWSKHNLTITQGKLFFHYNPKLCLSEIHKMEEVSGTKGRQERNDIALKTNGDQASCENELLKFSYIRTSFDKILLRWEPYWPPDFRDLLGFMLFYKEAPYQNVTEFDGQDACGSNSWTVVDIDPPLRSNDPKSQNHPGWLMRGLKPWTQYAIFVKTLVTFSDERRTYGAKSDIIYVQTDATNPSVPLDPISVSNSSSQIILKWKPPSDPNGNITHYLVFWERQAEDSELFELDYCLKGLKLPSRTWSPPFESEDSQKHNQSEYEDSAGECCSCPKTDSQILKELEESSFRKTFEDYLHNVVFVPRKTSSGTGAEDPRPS
Chain of Insulin receptor (P06213 763-1382 limits assumed): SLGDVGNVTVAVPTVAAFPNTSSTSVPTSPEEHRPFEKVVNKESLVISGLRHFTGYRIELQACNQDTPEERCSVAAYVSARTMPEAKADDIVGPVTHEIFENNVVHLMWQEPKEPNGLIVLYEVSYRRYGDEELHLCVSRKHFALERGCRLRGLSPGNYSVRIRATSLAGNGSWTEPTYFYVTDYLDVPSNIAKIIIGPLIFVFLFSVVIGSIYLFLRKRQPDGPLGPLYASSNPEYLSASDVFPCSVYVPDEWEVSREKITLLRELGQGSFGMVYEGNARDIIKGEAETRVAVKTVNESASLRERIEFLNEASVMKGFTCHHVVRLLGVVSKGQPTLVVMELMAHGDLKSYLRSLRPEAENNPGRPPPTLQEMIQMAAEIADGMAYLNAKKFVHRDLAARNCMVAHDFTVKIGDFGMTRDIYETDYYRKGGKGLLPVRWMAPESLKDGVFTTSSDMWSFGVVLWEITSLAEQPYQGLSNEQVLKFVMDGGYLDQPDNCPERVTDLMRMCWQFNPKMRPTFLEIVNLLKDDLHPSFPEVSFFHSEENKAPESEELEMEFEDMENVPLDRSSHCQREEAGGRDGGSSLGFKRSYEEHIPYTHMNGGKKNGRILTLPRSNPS

Question: For `COc1cc(OC2CCN(C)CC2)ccc1Nc1ncc(Cl)c(Nc2ccccc2P(C)(C)=O)n1`, which IC50 is on record?
Answer: 343 nM

Question: Which IC50 does the source give for `COc1cc(N2CCN(CCO)CC2)ccc1Nc1ncc(Cl)c(Nc2ccccc2P(C)(C)=O)n1` here?
Answer: 28.1 nM

Question: Which IC50 does the source give for `COc1cc(N2CCC(CN3CCC3)CC2)ccc1Nc1ncc(Cl)c(Nc2ccccc2P(C)(C)=O)n1` here?
Answer: 130 nM

System: not listed separately
Assay: Half life in mouse at 10 mg/kg, po by LC-MS/MS analysis
Assay type: ADME, organism-based
Conditions: in vivo

Question: Which half-life does the source give for `COc1cc(OC2CCN(C)CC2)ccc1Nc1ncc(Cl)c(Nc2ccccc2P(C)(C)=O)n1` here?
Answer: 1.6 h

Question: Which half-life does the source give for `COc1cc(N2CCC(CN3CCC3)CC2)ccc1Nc1ncc(Cl)c(Nc2ccccc2P(C)(C)=O)n1` here?
Answer: 3.1 h
